# Measurements as given in US12414960B2, “Analogues of oleuropein and oleacein and uses thereof” (Attica Sciences Ltd., priority 2020, dated 2025).
# Columns and labels:
# [1] = Deoxyribose degradation assay (hydroxyl radical scavenging); type: biochemical; details: NS = not statistically significant
# Outline: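 Hydroxyl radicals from Fenton's reaction degrade 2-deoxyribose. Scavenging is measured as inhibition of this oxidation, read spectrophotometrically as pink chromogen absorbance at 532 nm.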
# [2] = tested on: MCF-7 ER+ breast cancer cells; assay: XTT cell growth assay, MCF-7 ER+; type: cell-based, human; details: NS = not statistically significant; for inhibition at 50 µM: Homo sapiens, MCF7, 24 h, read-out: Effectiveness to suppress MCF7 cell growth (cell growth inhibition)
# Outline: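 MCF-7 ER+ cells grown 24 h in DMEM, then given 5, 10 or 50 μM compound in serum-free DMEM for 24 h. XTT reagent added for 4 h. Absorbance read at 450 nm with 630 nm reference; serum-free DMEM alone as negative control.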
# [3] = tested on: MDA-MB-231 triple negative breast cancer cells; assay: XTT cell growth assay, MDA-MB-231; type: cell-based, human; details: NS = not statistically significant; for inhibition at 50 µM: Homo sapiens, MDA-MB-231, 24 h, read-out: Effectiveness to suppress MDA-MB-231 cell growth (cell growth inhibition)
# Outline: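 Cells grown 24 h in DMEM, then exposed 24 h to 5, 10 and 50 μM compound in serum-free DMEM. Viability read by XTT reduction to formazan after 4 h, absorbance at 450 nm with 630 nm reference; serum-free DMEM alone as negative control.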
# [4] = tested on: MIA PaCa-2 pancreatic cancer cells; assay: Cell Glo luminescence cell growth assay, MIA PaCa-2; type: cell-based, human; details: NS = not statistically significant; for inhibition at 50 µM: Homo sapiens, MIA PaCa-2, 24 h, read-out: Effectiveness to suppress MIA PaCa-2 cell growth (cell growth inhibition); for Effectiveness to suppress MIA PaCa-2 cell growth (cell growth inhibition): 50 uM, 24 h
# Description: The CellTiter-Glo® Luminescent Cell Viability Assay (Promega Corporation; Madison, WI) is a homogeneous method of determining the number of viable cells in culture based on quantitation of the ATP present, an indicator of metabolically active cells. The homogeneous assay procedure involves adding the single reagent (CellTiter-Glo® Reagent) directly to cells cultured in serum-supplemented medium. The homogeneous “add-mix-measure” format results in cell lysis and generation of a luminescent signal proportional to the amount of ATP present. The amount of ATP is directly proportional to the number of cells present in culture.
# Cancer cells (3,000 cells/well) were harvested in a 96-well plate. Then, the cancer cells were treated with GS compounds and incubated for 24 hours. The MT Cell Viability Substrate, NanoLuc® Enzyme and cell culture medium was equilibrated to 37° C. The 2× RealTime-Glo™ reagent was prepared by diluting the MT Cell Viability Substrate and NanoLuc® Enzyme in 37° C. cell culture medium to a 2× concentration for each reagent. For example, 1 mL of 2× RealTime-Glo™ reagent was prepared by adding 2 μL of MT Cell Viability Substrate, 1,000×, and 2 μL of NanoLuc® Enzyme, 1,000×, to 996 μL of cell culture medium to form the 2× RealTime-Glo™ reagent. Then, an equal volume of 2× RealTime-Glo™ reagent was added to the cancer cells. The cells were kept for ˜20 minutes in the cell culture incubator and then luminescence was measured by using a plate-reading luminometer.
# MIA PaCa-2 is a human pancreatic ductal adenocarcinoma cell line derived from the carcinoma of a person.
# The effects of exemplary compounds on cancer cell lines and one non-tumorigenic cell line (control) were investigated using a high throughput screening assay. More specifically, the effects of the GS compounds on cell growth was evaluated by the XTT assay for cell lines HepG2, HeLa, MCF7 ER+, MDA-MB-231, and MKN-45, and by the Cell Glo luminescence assay for cell lines MIA PaCa-2, HCT-116, MCF-10A, and PANC-1.
SMILES,Deoxyribose Degradation Assay IC50 [1] [μg extract/mL],inhibition at 50 µM [2] [%],inhibition at 50 µM [3] [%],inhibition at 50 µM [4] [%],"Effectiveness to suppress MDA-MB-231 cell growth (cell growth inhibition) ([3]; 50 uM, 24 h)",Effectiveness to suppress MIA PaCa-2 cell growth (cell growth inhibition) [4],"Effectiveness to suppress MCF7 cell growth (cell growth inhibition) ([2]; 50 uM, 24 h)"
"C/C=C1/[C@H](OC2OC(CO)C(O)C(O)C2O)OC=C(C(=O)O)[C@H]1CC(=O)OCCc1ccc(O)c(O)c1 (stereo in doubt) [GS6, (2S,4S,E)-4-(2-(3,4-dihydroxyphenethoxy)-2-oxoethyl)-3-ethylidene-2{[(2R,3S,4R,5R,6S)-3,4,5-trihydroxy-6-(hydroxymethyl)tetrahydro-2H-pyran-2-yl]oxy}-3,4dihydro-2H-pyran-5-carboxylic acid]",41.9,24.8,45.3,,,,
"C/C=C1/[C@H](O[C@@H]2O[C@H](CO)[C@@H](O)[C@H](O)[C@H]2O)OC=C(C(=O)OC)[C@H]1CC(=O)OCCc1ccc(O)c(O)c1 [GS1, oleuropein]",80.8,,48.3,,,,
"C/C=C(/C=O)[C@@H](CC=O)CC(=O)OCCc1ccc(O)c(O)c1 [GS17, (3S,4E)-4-formyl-3-(2-oxoethyl)-4-hexenoic acid 2-(3,4-dihydroxyphenyl)ethyl ester, reference compound]",21.7,35.2,47.6,,,,
"C/C=C(/C=O)[C@@H](CC=O)CC(=O)OCCc1ccc(O)cc1 [GS19, (3S,4E)-4-formyl-3-(2-oxoethyl)-4-hexenoic acid 2-(4-hydroxyphenyl)ethyl ester, reference compound]",31.9,,55,30,,,
"C/C=C(/C=O)[C@@H](CC=O)CC(=O)OCCOc1ccccc1 [GS24, (3S,4E)-4-formyl-3-(2-oxoethyl)-4-hexenoic acid 2-phenoxyethyl ester]",16.1,60.5,80.5,28,highest suppressive activity,,
"C/C=C(/C=O)[C@@H](CC=O)CC(=O)SCCc1ccccc1 [GS27, S-phenethyl (3S,4E)-4-formyl-3-(2-oxoethyl)hex-4-enethioate]",16.4,83.2,61.4,91,,best efficacy,best efficacy

# Continued, in another order:
Deoxyribose Degradation Assay IC50 [1] [μg extract/mL],SMILES,inhibition at 50 µM [2] [%],inhibition at 50 µM [3] [%],inhibition at 50 µM [4] [%],"Effectiveness to suppress MDA-MB-231 cell growth (cell growth inhibition) ([3]; 50 uM, 24 h)",Effectiveness to suppress MIA PaCa-2 cell growth (cell growth inhibition) [4],"Effectiveness to suppress MCF7 cell growth (cell growth inhibition) ([2]; 50 uM, 24 h)"
21.3,"C/C=C(/C=O)[C@@H](CC=O)CC(=O)OCCCCCCCCCCCCCCCC [GS26, (3S,4E)-4-formyl-3-(2-oxoethyl)-4-hexenoic acid hexadecyl ester]",61,47.6,70,,best efficacy,
12.3,"C/C=C(/C=O)[C@@H](CC=O)CC(=O)OCCCSC [GS28, (3S,4E)-4-formyl-3-(2-oxoethyl)-4-hexenoic acid 3-(methylthio)propyl ester]",48.7,47.8,79,,best efficacy,
